According to ChEMBL document CHEMBL1949520, “Synthesis of terphenyl benzimidazoles as tubulin polymerization inhibitors” (2012):

Assays:
Format in all cases: functional
HOP-62 = test: Growth inhibition of human HOP62 cells by SRB assay
KB = test: Growth inhibition of human KB cells by SRB assay
A549 = test: Growth inhibition of human A549 cells by SRB assay
PC-3 = test: Growth inhibition of human PC3 cells by SRB assay
SiHa = test: Growth inhibition of human SiHa cells by SRB assay
COLO 205 = test: Growth inhibition of human COLO205 cells by SRB assay
ZR-75-1 = test: Growth inhibition of human ZR-75-1 cells by SRB assay
MCF7 = test: Growth inhibition of human MCF7 cells by SRB assay
[1] = Growth inhibition of human Gurav cells by SRB assay
A2780 = test: Growth inhibition of human A2780 cells by SRB assay
[2] = Growth inhibition of human DWD cells by SRB assay

Row | GI50 (KB) [µM] | GI50 (A549) [µM] | GI50 (PC-3) [µM] | GI50 (COLO 205) [µM] | GI50 (MCF7) [µM] | GI50 (A2780) [µM] | SMILES | GI50 (HOP-62) [µM] | GI50 (SiHa) [µM] | GI50 (ZR-75-1) [µM] | GI50 [1] [µM] | GI50 [2] [µM]
1 | 4.32 | 3.61 | 2.26 | 3.41 | 2.31 | 6.1 | Oc1cccc2[nH]c(-c3ccc(-c4ccc(-c5ccc(C(F)(F)F)cc5)cc4)cc3)nc12 | 3.2 | 3.72 | 5.11 | 3.19 | 3.18
2 | 32.1 | 3.63 | 100 | 2.56 | 31.6 | 41.2 | Cc1ccc2[nH]c(-c3ccc(-c4ccc(-c5ccccc5)cc4)cc3)nc2c1 | 39.3 | 35.2 | 27.4 | 3.31 | 28.3
3 | 24.9 | 6.03 | 100 | 100 | 30.2 | 24.6 | Cc1ccc2[nH]c(-c3ccc(-c4ccc(-c5ccc(F)cc5)cc4)cc3)nc2c1 | 33.5 | 41 | 35 | 16.5 | 33.1
4 | 39.7 | 41.2 | 41.2 | 100 | 39.2 | 32.1 | c1ccc(-c2ccc(-c3ccc(-c4nc5ccccc5[nH]4)cc3)cc2)cc1 | 100 | 100 | 100 | 100 | 100
5 | 4.01 | 8.32 | 1.24 | 1.21 | 2.2 | 41 | Oc1cccc2[nH]c(-c3ccc(-c4ccc(-c5ccccc5)cc4)cc3)nc12 | 9.04 | 9.71 | 35.6 | 1.11 | 9.68
6 | 2.71 | 1.31 | 1.24 | 1.32 | 0.19 | 2.71 | COc1ccc(-c2ccc(-c3ccc(-c4nc5c(O)cccc5[nH]4)cc3)cc2)cc1OC | 2.21 | 1.11 | 2.11 | 1.11 | 1.4
7 | 4.9 | 7.69 | 6.61 | 1.63 | 3.11 | 8.64 | COc1ccc(-c2ccc(-c3ccc(-c4nc5c(O)cccc5[nH]4)cc3)cc2)cc1 | 3.21 | 4.8 | 8.2 | 6.63 | 6.4
8 | 39.3 | 30.1 | 100 | 100 | 41.2 | 100 | CN(C)c1ccc(-c2ccc(-c3ccc(-c4nc5ccccc5[nH]4)cc3)cc2)cc1 | 100 | 100 | 100 | 100 | 100
9 | 2.28 | 2.4 | 2.56 | 8.6 | 3.42 | 2.8 | Oc1cccc2[nH]c(-c3ccc(-c4ccc(-c5cccc(Cl)c5)cc4)cc3)nc12 | 2.26 | 8.4 | 2.41 | 2.31 | 2.1
10 | 41.3 | 33.2 | 41.2 | 100 | 36.2 | 48.2 | Fc1ccc(-c2ccc(-c3ccc(-c4nc5ccccc5[nH]4)cc3)cc2)cc1 | 39.3 | 29.7 | 100 | 100 | 35.6
11 | 41.2 | 3.56 | 2.01 | 30.6 | 31 | 12.3 | Cc1ccc2[nH]c(-c3ccc(-c4ccc(-c5ccc(OC(F)(F)F)cc5)cc4)cc3)nc2c1 | 24.2 | 28.3 | 2.41 | 11 | 41.1
12 | 41 | 33.1 | 47 | 100 | 30.5 | 36 | Oc1ccc(-c2ccc(-c3ccc(-c4nc5ccccc5[nH]4)cc3)cc2)cc1 | 47.2 | 33.3 | 100 | 100 | 46.3
13 | 6.24 | 3.51 | 8.12 | 9.21 | 3.13 | 2.21 | Cc1ccc2[nH]c(-c3ccc(-c4ccc(-c5ccc(N(C)C)cc5)cc4)cc3)nc2c1 | 4.23 | 7.11 | 7.2 | 6.24 | 3.23

The next lines start with the compound.

Row | SMILES | GI50 (KB) [µM] | GI50 (A549) [µM] | GI50 (PC-3) [µM] | GI50 (COLO 205) [µM] | GI50 (MCF7) [µM] | GI50 (A2780) [µM] | GI50 (HOP-62) [µM] | GI50 (SiHa) [µM] | GI50 (ZR-75-1) [µM] | GI50 [1] [µM] | GI50 [2] [µM]
14 | CN(C)c1ccc(-c2ccc(-c3ccc(-c4nc5c(O)cccc5[nH]4)cc3)cc2)cc1 | 4.2 | 7.1 | 8.42 | 6.32 | 2.31 | 3.01 | 8.25 | 6.24 | 4.1 | 8.21 | 9.21
15 | COc1ccc(-c2ccc(-c3ccc(-c4nc5cc(C)ccc5[nH]4)cc3)cc2)cc1OC | 2.19 | 2.1 | 2.56 | 2.32 | 0.19 | 2.13 | 2.12 | 3.51 | 3.1 | 1.31 | 1.72
16 | COc1ccc(-c2ccc(-c3ccc(-c4nc5ccccc5[nH]4)cc3)cc2)cc1 | 47.2 | 38.1 | 100 | 45.2 | 33.3 | 100 | 100 | 2.76 | 35.1 | 38.1 | 100
17 | COc1cccc2c1C(=O)c1c(O)c3c(c(O)c1C2=O)C[C@@](O)(C(=O)CO)C[C@@H]3O[C@H]1C[C@H](N)[C@H](O)[C@H](C)O1 [DOXORUBICIN] | 0.17 | – | – | 0.14 | 0.17 | 0.16 | 0.14 | 0.14 | – | 0.17 | 0.1
18 | COc1ccc(-c2ccc(-c3ccc(-c4nc5cc(C)ccc5[nH]4)cc3)cc2)cc1 | 28.3 | 6.33 | 100 | 100 | 3.11 | 2.11 | 36.3 | 21.2 | 41.1 | 9.27 | 100
19 | Cc1ccc2[nH]c(-c3ccc(-c4ccc(-c5ccc(C(F)(F)F)cc5)cc4)cc3)nc2c1 | 41.2 | 3.52 | 2.01 | 30.6 | 31 | 12.3 | 24.2 | 33.2 | 2.41 | 12 | 38.2
20 | Cc1ccc2[nH]c(-c3ccc(-c4ccc(-c5ccc(O)cc5)cc4)cc3)nc2c1 | 21.2 | 3.52 | 30 | 100 | 12.1 | 31.2 | 41.2 | 33.5 | 18.2 | 11.3 | 21.2
21 | FC(F)(F)c1ccc(-c2ccc(-c3ccc(-c4nc5ccccc5[nH]4)cc3)cc2)cc1 | 47.2 | 36.6 | 45.2 | 33.9 | 41.4 | 100 | 100 | 100 | 48.3 | 39.1 | 100
22 | Clc1cccc(-c2ccc(-c3ccc(-c4nc5ccccc5[nH]4)cc3)cc2)c1 | 32.3 | 31.1 | 33.7 | 100 | 36.3 | 31.1 | 100 | 100 | 41.2 | 2.19 | 100
23 | Cc1ccc2[nH]c(-c3ccc(-c4ccc(-c5cccc(Cl)c5)cc4)cc3)nc2c1 | 2.26 | 2.8 | 2.67 | 2.78 | 1.21 | 2.8 | 2.74 | 3.6 | 3.45 | 2.12 | 2.51
24 | FC(F)(F)Oc1ccc(-c2ccc(-c3ccc(-c4nc5ccccc5[nH]4)cc3)cc2)cc1 | 39.1 | 38 | 100 | 100 | 38.4 | 100 | 100 | 38.4 | 100 | 100 | 100
25 | COc1ccc(-c2ccc(-c3ccc(-c4nc5ccccc5[nH]4)cc3)cc2)cc1OC | 9.25 | 7.6 | 47.1 | 41.2 | 7.6 | 21.6 | 4.2 | 6.2 | 39.7 | 9.23 | 42.1
26 | Oc1cccc2[nH]c(-c3ccc(-c4ccc(-c5ccc(F)cc5)cc4)cc3)nc12 | 6.92 | 0.17 | 15.3 | 1.22 | 3.01 | 41.2 | 8.31 | 9.1 | 6.32 | 2.86 | 22.2
27 | Oc1cccc2[nH]c(-c3ccc(-c4ccc(-c5ccc(OC(F)(F)F)cc5)cc4)cc3)nc12 | 3.31 | 0.19 | 7.41 | 8.32 | 2.21 | 2.9 | 2.27 | 8.41 | 3.8 | 3.6 | 3.1
